“Also recorded” adds a separate entry of the source. Read-outs that look alike come from different tables or passages of the source.
Tests used:
MCF-7 = assay: Proliferation assay MCF-7; assay type: cell-based; settings: Homo sapiens, MCF7, Breast, 72 hours
Description: (§1) Various cancer cell lines (listed in table 1) were plated at a density of 1000-5000 cells/well in 96-well plates in 90111 growth medium containing 10% FCS, 100 units/ml penicillin and 100 μg/ml streptomycin. Inhibitors were added a day later in 10 μl of 1% DMSO in DDW to obtain final concentrations of 0, 0.1, 0.3, 1, 3, and 10 μM. The final concentration of DMSO (0.1% DMSO) was kept constant in all samples. Medium with inhibitors was refreshed a day and two days later. Following exposure of the cells to the inhibitors for 72 hours at 37° C., the cells were fixed in 0.5% gluteraldehyde in medium for 10 min, washed three times with DDW, once with 0.1M sodium borate buffer pH 8.5 and stained with 1% methylene blue dissolved in 0.1M borate buffer solution for 60 min. Excess dye was washed out and cell-bound dye was eluted with 200 μl/well of 0.1 M HCl. The optical density value was read at 620 nm in ELISA plate reader. The data was analyzed in Microsoft Excel, using the vehicle control as 100% proliferation. The assays were performed in triplicates. The values in table 1 represent IC50 values derived from the dose-dependent growth curves obtained.
(§2) Compounds 6, 7, 8, and 9 were tested for their inhibitory potential in cell proliferation assay. In this assay cells were exposed to increasing concentrations of the molecules (at 0.1% DMSO in all wells) a day after seeding. Medium and inhibitors were refreshed every day, and following three days of treatment, cells were fixed and stained with methylene-Blue. IC50 values were determined from the curves of the optical density against compound concentration. The assay was performed in triplicates.

PANC1 = assay: Proliferation assay PANC1; assay type: cell-based; settings: Homo sapiens, PANC-1, Pancreatic, 72 hours
Description: as §1, §2

YUMAC = assay: Proliferation assay YUMAC; assay type: cell-based; settings: Homo sapiens
Description: as §1, §2

A2780 tumors = assay: Ovarian cancer A2780 xenograft tumor growth; assay type: in vivo, nude mice; settings: for Inhibition of ovarian tumor growth, comparative study: A2780, IP once a day, 20 mg/kg (FIG. 13); for Growth inhibition of ovarian cancer A2780 tumors / Growth inhibition of ovarian A2780 tumors: IP, 1/day; for Growth inhibition of ovarian cancer A2780 tumors: 20 mg/kg (FIG. 12); for Growth inhibition of ovarian A2780 tumors: 50 mg/kg
Description: Human hormone-refractory prostate cancer PC3 cells (ATCC, 1.5×10^6 cells per mouse) were injected subcutaneously into the right leg of Nude:Hsd mice (purchased from Harlan). Ten days later, when palpable tumors had developed, mice were divided into 3 groups with similar average tumor size. […] The mice treated with compound 7 group were daily injected with compound 7 dissolved in the below described vehicle, and the vehicle-treated group (veh) was daily injected by the vehicle alone. Vehicle included 4.4% DMSO, 1.2% Ethanol and 50% PEG400 in DDW; Groups were composed of 3 mice per group. Dose administered IP was 50 mg/Kg (4 ml/Kg) once a day for one month. The length (l) and the width (w) of the tumors were measured every day and the volumes of the tumors were calculated as follows: v=1w^2/2. Graphs present average volumes of the tumors versus time in days. The procedure was followed for the other described in-vivo studies with the following modifications:
Human ovary cancer A2780 cells (from ECACC, 2×10^6 cells per mouse) were injected subcutaneously into the right leg of female Nude:Hsd mice (purchased from Harlan). Inhibitors were injected IP daily at doses of 20 mg/kg (Exp. 2&3) or 50 mg/kg (Exp. 4) dissolved in 4.4% DMSO, 0.12% EtOH, 50% PEG-400 in DDW at volume of 4 ml/kg. The Veh group received 4.4% DMSO, 0.12% EtOH, 50% PEG-400 in DDW at volume of 4 ml/kg.

MDA MB 435 = assay: Proliferation assay MDA MB 435; assay type: cell-based; settings: Homo sapiens, Breast, 72 hours
Description: as §1, §2

IRS1 = IRS1 Ser-phosphorylation in YUMAC cells; assay type: cell-based, human; settings: metastatic melanoma YUMAC cells
Description: In addition, lysates were prepared from cells exposed to inhibitors at various concentrations for 24 hours in the presence or the absence of FCS without stimulation. Lysate preparation and western blot were the same as described above. Apoptosis was detected by immunoblotting with rabbit anti-PARP antibodies.

NCl-H1975 = assay: Proliferation assay NCl-H1975; assay type: cell-based; settings: Lung, 72 hours
Description: as §1, §2

MO59K = assay: Proliferation assay MO59K; assay type: cell-based; settings: Glioma, 72 hours
Description: as §1, §2

HT29 = assay: Proliferation assay HT29; assay type: cell-based; settings: Homo sapiens, HT-29, Colon, 72 hours
Description: as §1, §2

1376 = assay: Proliferation assay 1376; assay type: cell-based; settings: Bladder, 72 hours
Description: as §1, §2

SKOV-3 = assay: Proliferation assay SKOV-3; assay type: cell-based; settings: Homo sapiens, SK-OV-3, Ovarian, 72 hours
Description: as §1, §2

PC3 = assay: Proliferation assay PC3; assay type: cell-based, human; settings: Prostate
Description: as §1, §2

B16 [1] = assay: Clonogenic assay B16; assay type: cell-based; settings: Mus musculus, Melanoma
Description: (§3) Various cancer cells (listed in table 1) were seeded at a very low concentration (19 cells/well in 96-well plates or 63 cells/well in 24-well plates) in growth medium. A day later medium was replaced with growth medium containing various concentrations of inhibitors in a final concentration of 0.1% DMSO. The inhibitor-containing medium was refreshed three times a week. Following approximately two weeks cells were fixed by adding Gluteraldehide (0.5% final concentration) for 10 min, washed three time with DDW, once with borate buffer 0.1M and stained for 1 hour with 1% Methylene Blue in borate buffer 0.1M. Access stain was washed with water, and following drying colonies were counted. Alternatively, stain was extracted by 0.1N HCl for 1 hour and absorbance at 620 nm was measured by ELISA Reader. The assays were performed in triplicates. The values in table 1 represent IC50 values derived from the dose-dependent growth curves obtained.

B16 [2] = assay: Proliferation assay B16; assay type: cell-based; settings: Mus musculus, Melanoma, 72 hours
Description: as §1, §2

OVCAR3 = assay: Proliferation assay OVCAR3; assay type: cell-based; settings: Homo sapiens, OVCAR-3, Ovarian, 72 hours
Description: as §1, §2

AsPC1 = assay: Proliferation assay AsPC1; assay type: cell-based; settings: Homo sapiens, Pancreatic, 72 hours
Description: as §1, §2

QG56 = assay: Clonogenic assay QG56; assay type: cell-based; settings: Homo sapiens, QG-56, Lung
Description: as §3

T24P = assay: Proliferation assay T24P; assay type: cell-based; settings: Bladder, 72 hours
Description: as §1, §2

LIM 1215 = assay: Proliferation assay LIM 1215; assay type: cell-based; settings: LIM1215, Colon, 72 hours
Description: as §1, §2

A2780 = assay: Proliferation assay A2780; assay type: cell-based; settings: Homo sapiens, Ovarian, 72 hours
Description: as §1, §2

[3] = Melanoma, YUMAC, 72 hours, read-out: Proliferation assay IC50
[4] = Table 4, 72 hours incubation, read-out: Inhibition of human metastatic melanoma cells, YUMAC IC50

IC50 (MCF-7)	IC50 (PANC1)	IC50 (NCl-H1975)	IC50 (HT29)	IC50 (SKOV-3)	IC50 (PC3; Homo sapiens, PC-3, 72 h)	IC50 (B16 [2])	IC50 (OVCAR3)	IC50 (AsPC1)	IC50 (QG56)	IC50 (T24P)	IC50 (A2780)	Compound	IC50 (YUMAC; [3])	IC50 (YUMAC; [4])	Inhibition of ovarian tumor growth, comparative study (A2780 tumors)	IC50 (MDA MB 435)	IRS1 Ser-phosphorylation (IRS1)	IC50 (MO59K)	IC50 1376	IC50 (LIM 1215)	also measured
2800 nM	> 10000 nM	2300 nM	6100 nM	3500 nM	4600 nM	1700 nM	1900 nM	9500 nM	1400 nM	900 nM	600 nM	N#C/C(=C\c1cc(O)c(O)c(I)c1)C(=S)NCc1cc(O)c(O)c(O)c1 [Compound 8]	1200 nM	1200 nM	approximately 90%	2100 nM	trigger IRS1-ser phosphorylation; also recorded: detected	900 nM	800 nM	6400 nM	Growth inhibition of ovarian cancer A2780 tumors (A2780 tumors): 87%; Growth inhibition of ovarian A2780 tumors (A2780 tumors; tumors larger than 50 mm^3 at start): 82%; Growth inhibition of ovarian A2780 tumors (A2780 tumors; tumors larger than 470 mm^3 at start): approximately 85%; IC50 (PC3; 72 hours): 3600 nM; IC50 (B16 [1]): 400 nM
4800 nM	> 10000 nM	2500 nM	6800 nM	5300 nM	2800 nM	1900 nM	2000 nM	> 10000 nM	1700 nM	1200 nM	600 nM	N#C/C(=C\c1cc(O)c(O)c(Br)c1)C(=S)NCc1cc(O)c(O)c(O)c1 [Compound 7]	1200 nM	1200 nM	approximately 90%	2700 nM	detected	700 nM	900 nM	6500 nM	Growth inhibition of ovarian cancer A2780 tumors (A2780 tumors): 87%; IC50 (PC3; 72 hours): 3900 nM; IC50 (B16 [1]): 400 nM
2500 nM	> 10000 nM	2700 nM	1500 nM	4300 nM	2700 nM	1400 nM	900 nM	> 10000 nM	500 nM	1400 nM	400 nM	Oc1cc(CNC(=S)/C=C/c2cc(O)c(O)c(Br)c2)cc(O)c1O [Compound 9]	600 nM	600 nM	approximately 90%	1500 nM	trigger IRS1-ser phosphorylation; also recorded: detected	1400 nM	1400 nM	3300 nM	IC50 (PC3; 72 hours): 2000 nM
2100 nM	> 10000 nM	> 10000 nM	> 10000 nM	> 10000 nM	> 10000 nM	7900 nM	> 10000 nM	> 10000 nM	2400 nM	> 10000 nM	6800 nM	N#C/C(=C\c1cc(O)c(O)c(Br)c1)C(=S)NCc1cc(O)c(O)c(Br)c1 [Compound 6]	8500 nM	8500 nM	33%	> 10000 nM	–	6800 nM	2500 nM	> 10000 nM	IC50 (B16 [1]): 800 nM
